In patent US12403077B2, “Use of a new composition for preventing or slowing the appearance of signs of inflammation” (SOCIETE D'EXPLOITATION DE PRODUITS POUR LES INDUSTRIES …, priority 2018, dated 2025):
Marks after values point to notes of the source that are not given here.

Columns and labels:
lipase = assay: Anti-lipase activity in tubo (1,2-diglyceride to glycerol, absorbance 570 nm); assay type: biochemical; conditions: positive reference, concentration not given
Experimental: The subject of the method is to study the capacity of a composition to provoke and regulate the activity of the lipase enzyme by an in tubo method, said enzyme having an inflammatory action. Lipase has the capacity to convert the colorless 1,2-diglyceride into glycerol, which is pink in color. The samples for the evaluation test are placed in tubo in the presence of lipase and of 1,2-diglyceride, and the absorbance of the samples is measured in a spectrophotometer at a wavelength of 570 nm at the end of their preparation, then after 60 minutes of incubation at 37° C. under the same spectral conditions. By virtue of a range of glycerol, the lipase activity of the samples can be calculated, as can the percentage inhibition, by the following formulas: Lipase activity=(amount of glycerol formed between 0 and 60 minutes)/(60 minutes×sample volume) Percentage inhibition=100×[(lipase activity of control group)−(lipase activity of test product)]/(lipase activity of control group) Statistical Elements: The values are expressed as means+/−standard deviation. The statistical analysis of the results was conducted using a two-sided Student test with a significance threshold set at 5%, by pairwise comparison of the series of values. […]

TLR-3 = assay: IL-8 and hBD2 production by normal human keratinocytes, TLR-3 activated by poly(I:C) (ELISA); assay type: cell-based; conditions: cells stimulated with poly(I:C), 100 nM
Experimental: The anti-inflammatory effect of compositions was evaluated on normal human keratinocytes under conditions imitating an imbalance in the cutaneous microbiota through the activation of 3 TLRs (Toll-Like Receptors). These receptors are activated by recognition of specific elements of the microbes, and their function is to alert the immune system in order to activate the body's defenses. In this model, the imbalance in the microbiota was modeled with various stimuli imitating a skin infection: • TLR-5 was activated by flagellin (the main protein of the flagellar filament, present in virtually all bacteria) • TLR-2 was activated by zymosan (glycoprotein complex extracted from yeast membranes) • TLR-3 was activated by poly(I:C) (a synthetic analog of the double-stranded RNA found in viruses)
The effect of the compositions tested was evaluated on the basis of their capacity to modulate the production of IL-8 and of hBD2 induced by these stimuli, using specific “ELISA” kits. The concentration of total proteins was also evaluated, in order to standardize the production of cytokin (IL-8) and of antimicrobial peptide (hBD2).
The values are expressed as means+/−sem [standard error of the mean=standard deviation/root (number of values)].
For each treatment, a calculation was made of: % protection=100×[mean (cells+treatment)−mean (stimulated cells)]/[mean (unstimulated cells)−mean (stimulated cells)] The statistical analysis of the results was conducted using a two-sided Student test with a significance threshold set at 5%, by pairwise comparison of the series of values. A difference between the efficacy of two products is considered to be: • significant if p<0.05; • “at the limit of significance” if 0.05≤p<0.1; • and not significant if p>0.1. B.2.2. Results Obtained In the three tables which follow: For stimulated cells: *** p<0.001 vs unstimulated cells. For treated and stimulated cells: *** p<0.001 vs stimulated cells. The results obtained following activation of TLR-5 by flagellin, the results are set out in table 10 below: […]

Lipase activity (lipase; 60 minutes at 37° C., mean +/- standard deviation)	% inhibition of the lipase (lipase; vs control)	SMILES	IL-8 (TLR-3)	IL-8 % protection (TLR-3)	hBD2 % protection (TLR-3)	hBD2 (TLR-3; mean +/- sem)
2.11 +/− 0.01 mU/mL	50*** %	O=C1O[C@H]([C@@H](O)CO)C(O)=C1O [Vitamin C]	–	–	–	–
–	–	CO/C1=C\C(C)=C\[C@@H](C)[C@@H](O)[C@@H](C)C/C(C)=C/C=C/[C@H](OC)[C@@H]([C@@H](C)[C@@H](O)[C@H](C)[C@@]2(O)C[C@@H](O)[C@H](C)[C@@H](C(C)C)O2)OC1=O [bafilomycin]	<19 pg/mg proteins	100%***	100%***	17 +/− 2 pg/mg proteins
